Article PMC9464622, “The collectin SP-A and its trimeric recombinant fragment protect alveolar epithelial cells from the cytotoxic and proinflammatory effects of human cathelicidin in vitro” (Frontiers in Immunology, 2022)

Key:
[1] = cited from earlier work
Description: The host appears to protect its own cells from LL-37 cytotoxicity by several mechanisms.

human endothelial cells = conditions: cited from earlier work
Description: (§1) The host appears to protect its own cells from LL-37 cytotoxicity by several mechanisms. […] In addition, the C1q globular head receptor (gC1qR, also known as p33) protects ...

[2] = LPS vesicle aggregation assay (turbidity, DLS); assay type: biochemical, Salmonella enterica serotype Minnesota; conditions: Re-LPS/BPL 50 µg/ml, 75 nM SP-A, 1.1 µM LL-37, 0.43 µM rfhSP-A, 37°C
Experimental: Vesicles mimicking the inner membrane of Gram-negative bacteria were prepared by mixing POPE, POPG, and CL at weight ratios of 67:23:10. Alternatively, vesicles mimicking bacterial outer membrane were prepared by adding ReLPS to the POPE/POPG/CL mixture (BPL, bacterial phospholipids) at a weight ratio of 8:2, as previously reported ([25]). Multilamellar vesicles and large unilamellar vesicles of DPPC and surfactant-like vesicles composed of DPPC, POPG, and palmitic acid (PA) (at weight ratios of 23:10:1.6) were prepared as previously reported ([28], [33]–[35], [39]).
Turbidity measurements: The effects of SP-A, rfhSP-A, and calcium on the aggregation of LPS vesicles that mimic bacterial outer membranes were studied in the absence and presence of LL-37 by measuring the change in absorbance at 400 nm in a Beckman DU-800 spectrophotometer ([28], [39]). Briefly, LPS vesicles (50 μg/ml) were added to both the sample and the reference cuvettes in 5 mM Tris-HCl and 150 mM NaCl 0.1 mM EDTA buffer, pH 7.4. After 10 min equilibration at 37°C, either human SP-A, rfhSP-A, LL-37, or combinations thereof was added to the sample cuvette, and the change in optical density at 400 nm was monitored. Next, 2.5 mM Ca^2+ was added to both the sample and reference cuvettes, and the change in absorbance was monitored again. Aggregation of surfactant phospholipid vesicles was performed in the same way. […]

P. aeruginosa = test: Bacterial killing assay, P. aeruginosa; conditions: 10^5 CFU/ml, PBS, 1 h 37°C; SP-A 0.012 µM, rfhSP-A 0.075 µM; increasing LL-37
Experimental: (§2) Klebsiella pneumoniae 52145 (serotype K2:O1), nontypeable Haemophilus influenzae strain 375 (NTHi), and P. aeruginosa (PAO1) are clinical isolates, as previously described ([40]–[42]). P. aeruginosa, and K. pneumoniae K2 were grown in Luria–Bertani (LB) broth at 37°C with continuous shaking to the exponential phase. Frozen stocks of NTHi strains were thawed and then grown on chocolate agar plates during 18 h at 37°C in a humidified 5% CO2 atmosphere. Then, NTHi were grown to the exponential phase on brain heart infusion broth (BHI) supplemented with 10 µg/ml hemin and 10 µg/ml β-nicotinamide adenine dinucleotide (β-NAD) (sBHI) with continuous shaking at 37°C in a humidified 5% CO^2 atmosphere. Exponential-phase bacteria were then harvested by centrifugation at 500 g for 10 min, resuspended in PBS, and adjusted to the desired final concentration, as described in ([24]).
(§3) The microbicidal activity of LL-37 in the presence of SP-A or rfhSP-A was evaluated by colony counts on plate assays ([24], [25]). […] Viable bacteria were enumerated by colony count and results were expressed as a percentage of relative survival in comparison to untreated bacteria.

K. pneumoniae K2 [3] = test: Transmission electron microscopy of bacteria; assay type: cell-based, Klebsiella pneumoniae; conditions: LL-37 55.5 µM, SP-A 0.3 µM, rfhSP-A 1.5 µM, 30 min 37°C PBS; TEM
Experimental: The effect of LL-37, SP-A, rfhSP-A, and combinations thereof on the ultrastructure of K. pneumoniae was visualized by means of transmission electron microscopy, as described in ([25]). […] Cells were spun down and PBS medium was removed. Cell pellets were then chemically fixed with 4% paraformaldehyde and 2.5% glutaraldehyde for 4 h at 4°C and washed three times with PBS. Next, bacteria were post-fixed with 1% osmium tetroxide for 1 h. Samples were then washed thrice with bi-distilled water and dehydrated using sequential exposure to acetone concentrations ranging from 30% to 100% for 15 min at room temperature. Next, infiltration and embedding were performed using Spurr’s resin. The samples were sectioned using an ultramicrotome with a diamond knife and were mounted on copper grids. Samples were examined on a JEOL JEM 1010 electron microscope (JEOL, Tokyo, Japan).

K. pneumoniae = test: Bacterial membrane permeabilization, Sytox Green; assay type: cell-based, Klebsiella pneumoniae; conditions: 2.2 µM LL-37, 0.075 µM SP-A, 0.4 µM rfhSP-A, PBS pH 7.4, 37°C; three independent experiments
Experimental: The ability of LL-37, SP-A, rfhSP-A, and combinations thereof to permeabilize the outer and cytoplasmic bacterial membranes was studied in live bacteria by quantifying the internalization of the impermeant fluorescent Sytox Green, since its fluorescence increases when binding to bacterial DNA. For the measurement of Sytox Green influx, the probe (1 μM) was added to 1 ml of bacterial suspension (2x10^7 CFU/ml) in PBS and the sample was incubated for 15 min in darkness at room temperature as described in ([25]). Then, the fluorescence of the Sytox Green/bacterial suspension mixture was monitored for 4 hours in a FLUOstar Omega microplate reader (BMG LabTechnologies, Ortenberg, Germany) at excitation and emission wavelengths of 485 and 520 nm, respectively. PBS was used as a negative control, whereas ethanol (70%) was used as a positive control. Background fluorescence was measured in non-labeled bacteria.

[4] = Circular dichroism: secondary structure with and without bacterial lipid vesicles; assay type: physicochemical; conditions: far-UV CD, 25°C, 5 mM Tris-HCl, 150 mM NaCl pH 7.4; 100 µg/ml LL-37, 75 µg/ml SP-A or rfhSP-A; mixture compared with sum of individual spectra
Experimental: Circular dichroism (CD) spectra were obtained on a Jasco J-715 spectropolarimeter fitted with a 150 W xenon lamp ([38]). Quartz cells with a 0.1 cm optical path length were used, and the spectra were recorded in the far-UV region (190-260 nm) with a scanning speed of 50 nm/minute at 25°C. Four scans were accumulated and averaged for each spectrum. The acquired spectra were corrected by subtracting the appropriate blanks, subjected to noise reduction analysis, and presented as molar ellipticities (degrees cm2 dmol-1) assuming 110 Da as the average molecular mass per amino acid residue. At least three independent preparations of LL-37, SP-A, and rfhSP-A were measured. Spectra Manager Software (Jasco version 1.53) was used.
Two types of lipid vesicles were used: vesicles mimicking the bacterial cell wall (Re-LPS/BPL at a ratio of 08:02 by weight), and vesicles of bacterial inner membrane phospholipids (BPL). The final concentrations were 100 μg/ml (22.2 μM) for LL-37, 75 μg/ml (0.11 μM) for SP-A, and 75 μg/ml (1.3 μM) for rfhSP-A, in a final volume of 200 μl of 5 mM Tris-HCl, NaCl 150 mM, pH 7.4 buffer.
Vesicles mimicking the inner membrane of Gram-negative bacteria were prepared by mixing POPE, POPG, and CL at weight ratios of 67:23:10. […]

K. pneumoniae K2 [5] = test: Bacterial killing assay, K. pneumoniae; conditions: 10^5 CFU/ml, PBS, 1 h 37°C; SP-A 0.11 µM, rfhSP-A 0.7 µM; increasing LL-37; CFU counting
Experimental: as §2, §3

[6] = system: nontypeable Haemophilus influenzae; test: Bacterial killing assay, NTHi; conditions: 10^5 CFU/ml, PBS + 1% TSB, 1 h 37°C; SP-A 0.025 µM, rfhSP-A 0.15 µM; increasing LL-37
Experimental: as §2, §3

influenza A virus = conditions: cited from earlier work
Description: as §1

[7] = system: alveolar epithelial cells; conditions: cited from earlier work
Description: as §1

A549 cells = test: LL-37-induced IL-8 secretion (ELISA); assay type: cell-based, human; conditions: A-438079 10 µM, 15 min pre-treatment; LL-37 15 µM, 24 h
Experimental: A549 cells were seeded to a density of 50,000 cells per well in a 96-well tissue culture plate for 18 h in RPMI 1640 medium supplemented with antibiotics, 2 mM L-glutamine, and 5% FBS.
Secreted IL-8 was quantified in supernatants of A549 cells by ELISA (R&D Systems) following the supplier instructions. Briefly, anti-human IL-8 was coated on a 96-well Nunc-Immuno Plate MaxiSorp Surface (Thermo Scientific, Waltham, MA) in PBS overnight. After blocking with PBS and 10% FBS, and extensive washing, samples and standards were incubated for 2 h at room temperature. IL-8 cytokine was detected with biotinylated detection antibody and streptavidin-HRP. The colorimetric reaction was developed with tetramethylbenzidine (BD Biosciences, San Diego, CA) and was stopped with 4 M sulfuric acid. The absorbance at 450 nm was read on an ELISA reader (RT-6100 plate reader, Rayto Life and Analytical Sciences, Shenzhen, China).

| Compound | effect on antimicrobial activity of LL-37 [1] | effect on LL-37 cytotoxicity on human endothelial cells (human endothelial cells) | LPS vesicle aggregation (scattered light), with calcium ([2]; 2.5 mM Ca2+, pH 7.4) | LPS vesicle turbidity (400 nm), no calcium ([2]; pH 7.4, before Ca2+) | effect on antibacterial activity of LL-37 against P. aeruginosa (P. aeruginosa) | effect on ultrastructure of K. pneumoniae (K. pneumoniae K2 [3]) | Sytox Green permeabilization of K. pneumoniae (K. pneumoniae) | CD spectrum / change in α-helical content [4] | effect on antibacterial activity of LL-37 against K. pneumoniae (K. pneumoniae K2 [5]) | effect on antibacterial activity of LL-37 against NTHi [6] | antiviral activity against influenza A virus, LL-37 with SP-A (influenza A virus) | effect on human β-defensin 3 cytotoxicity on alveolar epithelial cells [7] | IL-8 release, A549, with P2X7 inhibitor (A549 cells) |
| --- | --- | --- | --- | --- | --- | --- | --- | --- | --- | --- | --- | --- | --- |
| apolipoprotein A-I: HDL apolipoprotein A-I | reduces the antimicrobial activity of LL-37 | reduces the cytotoxicity of LL-37 on human endothelial cells | – | – | – | – | – | – | – | – | – | – | – |
| SP-A: Human surfactant protein A isolated from bronchoalveolar lavage fluid of patients with alveolar proteinosis | – | – | greatly increased | did not affect sample turbidity | neither SP-A nor rfhSP-A modifies the antibacterial activity of LL-37 | did not cause any perturbation of the bacterial cell wall | did not affect the fluorescence of the dye | marked decrease of negative ellipticity without any shift of the minimum at 207 nm | neither SP-A nor rfhSP-A modifies the antibacterial activity of LL-37 | neither SP-A nor rfhSP-A modifies the antibacterial activity of LL-37 | additive antiviral activity against influenza A virus | reduced cytotoxicity on alveolar epithelial cells | not observed in the presence of the P2X7 inhibitor |
| Clc1cccc(-c2nnnn2Cc2cccnc2)c1Cl [A-438079, reference compound] | – | – | – | – | – | – | – | – | – | – | – | – | decreased LL-37-induced IL-8 secretion |
